Target: von Hippel-Lindau disease tumor suppressor (Homo sapiens, UniProt P40337)
Assay: Compounds were transferred from the stock plate to the assay plate and diluted into running buffer containing no DMSO. All compounds were run as a six-concentration series with a final assay top concentration of 100 uM. Data analysis was performed in Scrubber 2 (BioLogic software, Campbell, Australia). Blanks were subtracted and data was corrected for DMSO using a standard DMSO curve.

Chain of von Hippel-Lindau disease tumor suppressor (P40337 whole entry): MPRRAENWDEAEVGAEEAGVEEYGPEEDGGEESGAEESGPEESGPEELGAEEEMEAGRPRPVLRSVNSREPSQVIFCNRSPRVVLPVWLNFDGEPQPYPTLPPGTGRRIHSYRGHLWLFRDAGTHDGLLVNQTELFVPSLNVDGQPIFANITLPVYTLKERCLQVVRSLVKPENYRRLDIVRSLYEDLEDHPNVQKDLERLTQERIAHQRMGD

Structure (SMILES): COc1cc([C@H](C(=O)N2C[C@H](O)C[C@H]2C(=O)NCc2ccc(-c3scnc3C)cc2)C(C)C)on1
- Kd: 13 µM

— ChEMBL document CHEMBL5727861, “Compounds and methods for the enhanced degradation of targeted proteins” (2020)
